Laboratory results from patent US10695322B2 (priority 2016, dated 2020).
Read-outs that look alike come from different tables or passages of the source.

Assays:
[1] = molecular target: T1, LdtMt2 (Mycobacterium tuberculosis, UniProt I6Y9J2); format: binding, M. tuberculosis; settings: for Kd: 24° C., tris pH 8.0
[2] = molecular target: LdtMt1 (Mycobacterium tuberculosis, UniProt O53638); test: biochemical; format: binding, M. tuberculosis
[3] = test system: M. tuberculosis, M. abscessus, A. baumannii, K. pneumoniae, E. cloacae, P. aeruginosa, E. faecalis and S. aureus; test: Minimum inhibitory concentration (MIC90), broth dilution, panel of pathogens; format: cell-based; settings: panel of tested pathogens
[4] = molecular target: T1, LdtMt2; format: binding, M. tuberculosis
[5] = molecular target: T1, LdtMt2; test: biochemical; set-up: species or system M. tuberculosis
[6] = molecular target: LdtMab1 (Mycobacteroides abscessus, UniProt B1MDC1); test: UPLC-MS analysis of protein-drug adducts, LdtMab1; format: binding, M. abscessus
Sequence of LdtMab1 (B1MDC1 entry or part of it): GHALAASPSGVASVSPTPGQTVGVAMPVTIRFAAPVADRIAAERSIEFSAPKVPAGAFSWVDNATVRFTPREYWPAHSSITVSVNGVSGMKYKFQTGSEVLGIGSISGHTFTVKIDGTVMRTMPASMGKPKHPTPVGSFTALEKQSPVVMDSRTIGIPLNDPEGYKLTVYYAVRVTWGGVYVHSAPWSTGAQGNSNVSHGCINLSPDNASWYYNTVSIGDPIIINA

[7] = molecular target: LdtMab2 (Mycobacteroides abscessus, UniProt B1MMQ4); test: Isothermal titration calorimetry, binding to LdtMab2; set-up: species or system M. abscessus; settings: ITC, 24° C., tris pH 8.0
Sequence of LdtMab2 (Mycobacteroides abscessus, UniProt B1MMQ4) (B1MMQ4 62-406 limits assumed): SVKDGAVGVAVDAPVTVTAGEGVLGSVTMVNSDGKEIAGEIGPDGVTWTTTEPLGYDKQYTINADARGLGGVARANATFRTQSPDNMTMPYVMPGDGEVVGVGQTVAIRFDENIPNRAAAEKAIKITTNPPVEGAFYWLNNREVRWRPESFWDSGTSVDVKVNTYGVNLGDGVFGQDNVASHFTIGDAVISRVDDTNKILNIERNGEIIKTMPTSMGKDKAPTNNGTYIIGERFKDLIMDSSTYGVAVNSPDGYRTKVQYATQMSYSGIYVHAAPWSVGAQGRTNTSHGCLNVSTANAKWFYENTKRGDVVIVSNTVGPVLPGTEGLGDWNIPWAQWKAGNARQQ

[8] = test system: LdtPa; test: UPLC-MS analysis of protein-drug adducts, LdtPa; format: binding, P. aeruginosa
[9] = test system: LdtCl; test: UPLC-MS analysis of protein-drug adducts, LdtCl; format: binding, E. cloacae; settings: evolved carbapenem alone
Protocol: Ultra-performance liquid chromatography-high resolution mass spectrometry (UPLC-MS) with a Waters Acquity H-Class system utilizing a Waters Acquity BEH-300 UPLC column packed with a C4 stationary phase (2.1×50 mm, 1.7 μm) in conjunction with HRMS analysis by a Waters Xero-G2 quadropole-TOF electrospray mass spectrometer was used to detect and analyze protein-drug adducts. Each enzyme (2 μM) in 25 mM Tris buffer, pH 8, was incubated in the absence or presence of drugs (50 μM) at room temperature for 5 hours. Trifluoroacetic acid (0.1% final) was used to quench the reactions, samples were filtered through a 0.22 um filter and analyzed using UPLC-MS as follows: Mobile phase: 0-1 min 90% water+10% ACN+0.1% formic acid, 1-7.5 min gradient up to 20% water+80% ACN+0.1% formic acid, 7.5-8.4 min 20% water+80% ACN+0.1% formic acid, 8.4-8.5 min gradient up to 90% water+10% ACN+0.1% formic acid, 8.5-10 min 90% water+10% ACN+0.1% formic acid. Flow rate=0.3 mL min^−1. T=60° C.

[10] = test system: LdtMab2; test: UPLC-MS analysis of protein-drug adducts, LdtMab2; format: binding, M. abscessus; settings: evolved carbapenem alone
[11] = test system: LdtKp; test: UPLC-MS analysis of protein-drug adducts, LdtKp; format: binding, K. pneumoniae
[12] = molecular target: T2, LdtMt2, wild-type (L,D-transpeptidase of M. tuberculosis; fragment without N-terminal transmembrane domain, N-terminal His6, TEV-cleavable) (Mycobacterium tuberculosis, UniProt I6Y9J2); test: biochemical; format: binding
T2 construct: Fragments excluding the putative transmembrane domain were cloned, expressed and purified; His6 (TEV-cleavable) (N); made in house; host or cells: E. coli BL21(DE3)
T2 sequence (I6Y9J2 56-408 limits assumed): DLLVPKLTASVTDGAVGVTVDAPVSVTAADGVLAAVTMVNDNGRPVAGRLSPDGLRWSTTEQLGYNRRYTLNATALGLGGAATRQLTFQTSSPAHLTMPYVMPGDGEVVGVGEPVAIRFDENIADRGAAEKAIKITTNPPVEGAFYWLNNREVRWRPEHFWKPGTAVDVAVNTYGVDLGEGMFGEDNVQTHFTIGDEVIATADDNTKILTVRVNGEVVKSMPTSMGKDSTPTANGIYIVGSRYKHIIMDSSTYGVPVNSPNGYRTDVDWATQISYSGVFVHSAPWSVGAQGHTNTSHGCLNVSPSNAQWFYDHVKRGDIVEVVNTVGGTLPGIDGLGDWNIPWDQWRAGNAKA

[13] = 10 μM LdtMt2, MES pH 6.5, 10° C.

Sequence of LdtMt1 (O53638 32-251 limits assumed): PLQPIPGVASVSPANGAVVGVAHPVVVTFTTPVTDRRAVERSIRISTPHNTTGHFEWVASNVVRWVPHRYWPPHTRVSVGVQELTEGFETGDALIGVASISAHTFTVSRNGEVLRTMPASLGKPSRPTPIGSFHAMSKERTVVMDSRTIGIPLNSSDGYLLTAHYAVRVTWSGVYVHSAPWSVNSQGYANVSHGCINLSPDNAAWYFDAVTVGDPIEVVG
T1 sequence (I6Y9J2 56-408 limits assumed): as the sequence (I6Y9J2 56-408 limits assumed) above

SMILES	minimum inhibitory concentration (MIC90) / growth inhibition [3]	reaction and covalent adduct formation [6]	reaction and covalent adduct formation [8]	reaction and covalent adduct formation [9]	reaction and covalent adduct formation [10]	reaction and covalent adduct formation [11]	also measured
CC(=O)OCC1=C(C(=O)O)N2C(=O)[C@@H](NC(=O)Cc3cccs3)[C@H]2SC1 [cephalothin]							heat of association [1]: could not be detected; heat of association [2]: could not be detected
C[C@@H](O)[C@H]1C(=O)N2C(C(=O)O)=C(SCc3ccccc3)[C@H](C)[C@H]12 [T222]	inhibit growth of all tested pathogens except P. aeruginosa						
C[C@@H](O)[C@H]1C(=O)N2C(C(=O)O)=C(Sc3c[nH]c4ccccc34)[C@H](C)[C@H]12 [T224]	inhibit growth of all tested pathogens except P. aeruginosa						
C[C@@H](O)[C@H]1C(=O)N2C(C(=O)O)=C(S[C@@H]3CN[C@H](CNS(N)(=O)=O)C3)[C@H](C)[C@H]12 [doripenem]							mass of stable adduct with wild-type LdtMt2 [4]: 123 Da; Kapp ([5]; pH 6.5): 32.6 ± 11.3 µM; kinact ([5]; pH 6.5): 0.122 s⁻¹; kinact/KI ([5]; read-out: kinact/Kapp ratio): 3670 M⁻¹ s⁻¹
C[C@@H](O)[C@H]1C(=O)N2C(C(=O)O)=C(SCC(F)(F)F)[C@H](C)[C@H]12 [T221]	inhibit growth of all tested pathogens except P. aeruginosa						
C[C@@H](O)[C@H]1C(=O)N2C(C(=O)O)=C(SCCc3ccccc3)[C@H](C)[C@H]12 [T223]	inhibit growth of all tested pathogens except P. aeruginosa						
CCCOC(=O)CSC1=C(C(=O)O)N2C(=O)[C@H]([C@@H](C)O)[C@H]2[C@H]1C [T206]		reacted and formed covalent adducts	did not react	reacted and formed covalent adducts	did not react	reacted and formed covalent adducts	Kd ([1]; ITC): low to sub μM range; Kd [7]: low to sub μM range; Kd [12]: 2.8 µM
CC1(C)S[C@@H]2[C@H](NC(=O)[C@H](N)c3ccc(O)cc3)C(=O)N2[C@H]1C(=O)O [amoxicillin]							heat of association ([1]; ITC): could not be detected; heat of association ([2]; ITC): could not be detected
C[C@H]1[C@H](NC(=O)/C(=N\OC(C)(C)C(=O)O)c2csc(N)n2)C(=O)N1S(=O)(=O)O [aztreonam]							heat of association ([1]; ITC): could not be detected; heat of association ([2]; ITC): could not be detected
COC(=O)CSC1=C(C(=O)[O-])N2C(=O)[C@H]([C@@H](C)O)[C@H]2[C@H]1C.[Na+] [T205, sodium (4R,5S,6S)-6-((R)-1-hydroxyethyl)-3-((2-methoxy-2-oxoethyl)thio)-4-methyl-7-oxo-1-azabicyclo[3.2.0]hept-2-ene-2 carboxylate]		reacted and formed covalent adducts	reacted and formed covalent adducts	reacted and formed covalent adducts	did not react	reacted and formed covalent adducts	Kd [12]: 155 µM
C[C@@H](O)[C@H]1C(=O)N2C(C(=O)O)=C(SCC(=O)OC3CCCCC3)[C@H](C)[C@H]12 [T208]		reacted and formed covalent adducts	reacted and formed covalent adducts	reacted and formed covalent adducts	did not react	reacted and formed covalent adducts	Kd ([1]; ITC): low to sub μM range; Kd [7]: low to sub μM range; Kapp [5, 13]: 4.8 ± 2.9 µM; kinact ([5]; 10 μM LdtMt2, MES pH 6.5, 10° C., read-out: kinact (converted)): 0.045 s⁻¹; Kd [12]: 5.65 µM
CSC1=C(C(=O)O)N2C(=O)[C@H]([C@@H](C)O)[C@H]2[C@H]1C [T210]		reacted and formed covalent adducts	reacted and formed covalent adducts	reacted and formed covalent adducts	did not react	reacted and formed covalent adducts	Kd [7]: low to sub μM range; Kapp [5, 13]: 20.8 ± 3.3 µM
